According to US20230372350A1, “ASTROCYTIC TRPA1 CHANNEL INHIBITION AS A NOVEL NEUROPROTECTIVE THERAPEUTIC TARGET IN THE PRODROMAL PHASES OF ALZHEIMER'S DISEASE” (priority 2020, published 2023):
Entries after “also recorded” stand apart in the source; their conditions may differ.

Key:
[1] = system: astrocytes of the hippocampus (stratum radiatum), TRPA1 channel; assay: Acute application on acute hippocampal slices: astrocyte calcium imaging; format: cell-based, mouse; settings: 40 μM, APP/PS1-21 mice 1-month old
Method: (§1) Coronal sections of the hippocampus (thickness 300 μm) were prepared from APP/PS1-21 transgenic mice (1 month and 3 months old) or from WT mice from the same litter. The mice were sacrificed by decerebration and decapitation. The brain was quickly removed and sectioned in ice-cold ACSF containing (in mM) : 2.5 KCl, 7 MgCl2, 0.5 CaCl2, 1.2 NaHPO4, 25 NaHCO3, 11D-glucose and 234 sucrose bubbled with 95% of O2 and 5% of CO2 with a VT1200S vibratome (Leica, Germany). The sections containing the hippocampus were placed in ACSF containing (in mM) : 126 NaCl, 2.5 KCl, 1.2 MgCl2, 2.5 CaCl2, 1.2 NaH2PO4 bubbled with 95% of O2 and 5% of CO2 and supplemented with 1 mM of sodium pyruvate at room temperature for a recovery period.
300 μm coronal sections were transferred to a chamber allowing constant perfusion with ACSF at room temperature, bubbling with 95% of O2 and 5% of CO2 on the upright microscope tray (Eclipse E600 FN, Nikon, France) equipped with a 60× (NA 1.0) water immersion objective and infrared interference contrast optical systems with a CCD camera (Optronis VX45, Germany). […] The signals were amplified by Axopatch 200B, sampled by a Digidata 1440A interface and recorded by the pClamp8 software (Molecular Devices, USA). […] The input resistance was calculated by measuring the current in response to a 10 mV pulse of 80 ms duration near the end of the voltage command.

[2] = system: hippocampal astrocytes of APP/PS1-21 and WT mice; assay: Chronic intraperitoneal treatment: astrocyte calcium imaging (Fluo-4) in hippocampal slices; format: in vivo, mouse
Method: The used model is a transgenic murine model obtained on a C57BL/6J genetic background which co-expresses the mutated human form of the amyloid precursor protein (mutated APP KM670/671NL) and of presenilin 1 (mutated PS1 L166P) under the control of the neural promoter Thy1. The presence of these two mutations allows increased production of the Aβ peptide from the 14th postnatal day. This leads to cerebral amyloidosis with the appearance of the first senile plaques around 8 postnatal weeks. This amyloid pathology is accompanied by inflammatory gliosis (microgliosis and astrogliosis detectable from 4 months), dendritic spine dystrophy and tau hyperphosphorylation (around 8 months). Cognitive behavioral disorders, and in particular of learning and spatial memory, are developed in around 6 to 8 months. This model was set-up and described by Rebecca Radde in 2006 (Radde et al., EMBO reports, 2006) and is widely used by the scientific community. This model is available in the animal facility of the Institut des Neurosciences de Grenoble and has been bred by the inventors since 2014.
(§2) This solution is then diluted to 1 μg/μl in an isotonic solution containing 1% Pluronic F-127 and 0.9% NaCl. The animals are injected daily intraperitoneally at a dose of 5 mg/kg of body mass. Sterile 0.5 ml BD MicroFine syringes with no dead volume, equipped with a 30G (0.3 mm) needle are used for the injections.
The carrier (10% DMSO, 1% Pluronic F-127, 0.9% NaCl) is used as a control and is also injected daily, according to the same procedure, into the WT and APP/PS1 control animals (carrier groups).
(§3) The injection is started from the 14th postnatal day (appearance of the expression of the Thy1gene promoter in the hippocampus, triggering the overexpression of Aβ in the APP/PS1-21 murine model)
as §1
300 μm coronal sections were transferred to a chamber allowing constant perfusion with ACSF at room temperature, bubbling with 95% of O2 and 5% of CO2 on the upright microscope tray (Eclipse E600 FN, Nikon, France) equipped with a 60× (NA 1.0) water immersion objective and infrared interference contrast optical systems with a CCD camera (Optronis VX45, Germany). 8-11 MSΩ glass pipettes (Harvard Apparatus) were filled with an intracellular solution containing (in mM): 105 K-gluconate, 30 KCl, 10 phosphocreatine, 10 HEPES, 4 ATP-Mg, 0.3 GTP-Tris, 0.2 Fluo-4-pentapotassium salt (Life Technologies), adjusted to pH 7.2 with KOH. The signals were amplified by Axopatch 200B, sampled by a Digidata 1440A interface and recorded by the pClamp8 software (Molecular Devices, USA). Astrocytes were identified on the basis of their morphology, their location in the stratum radiatum and a negative resting potential (between −70 and −80 mV). The membrane potential was maintained at −80 mV. The input resistance was calculated by measuring the current in response to a 10 mV pulse of 80 ms duration near the end of the voltage command.

[3] = system: dendritic spines of CA1 pyramidal neurons, Thy1-eYFP-H-APP/PS1-21 mice; assay: Chronic intraperitoneal treatment: analysis of dendritic spines; format: in vivo, mouse; settings: 3 months, treated from 14th postnatal day
Method: In some experiments, APP/PS1-21 mice were crossed with the Thy1-eYFP-H murine transgenic line which expresses the fluorescent protein eYFP in specific neuron subpopulations. This solution is then diluted to 1 μg/μl in an isotonic solution containing 1% Pluronic F-127 and 0.9% NaCl. The animals are injected daily intraperitoneally at a dose of 5 mg/kg of body mass. Sterile 0.5 ml BD MicroFine syringes with no dead volume, equipped with a 30G (0.3 mm) needle are used for the injections. The injection is started from the 14th postnatal day (appearance of the expression of the Thy1gene promoter in the hippocampus, triggering the overexpression of Aβ in the APP/PS1-21 murine model) Hippocampal sections from Thy1-eYFP-H-APP/PS1-21 mice were imaged using a Zeiss Airyscan module with a 100× (NA 1.4) Plan Apochromat oil immersion objective. Confocal image stacks (increment of 200 nm) were performed with a voxel size of 0.041×0.041×0.2 μm. The 3D analysis of the spine density, of the spine volume and the spine classification was performed using NeuronStudio software (Icahn School of Medicine at Mount Sinai, USA). The length of individual dendrites was automatically measured as well as the number and volume of associated dendritic spines which were classified as […], thin or mushroom using automated 3D shape classification. For each condition, 10 dendrites were imaged and 700 dendritic spines were analyzed.

WT control animals = assay: Chronic intraperitoneal treatment: overall effect on WT control animals; format: in vivo; settings: daily injection from the 14th to the 90th postnatal day
Method: as §2, §3

human forms of TRPA1 = human forms of TRPA1 (Homo sapiens, UniProt O75762); settings: McNamara et al. 2007, read-out: CI50 (the source's name); cited from earlier work
rodent forms of TRPA1 = settings: McNamara et al. 2007, Eid et al. 2008, read-out: CI50 (the source's name); cited from earlier work
[4] = system: models of neuropathic and inflammatory pain; settings: rats, oral administration 100 mg/kg; Eid et al. 2008; cited from earlier work
[5] = system: trigeminal neuropathy-like pain behaviors; settings: mice, subcutaneous (100 μg/10 μl) or intragastric (300 mg/kg); Trevisan et al. 2016; cited from earlier work
[6] = APP/PS1-21 mice, 1-month old, 5 mg/kg i.p. daily from 14th postnatal day
[7] = APP/PS1-21 mice, 3 months, chronic treatment 5 mg/kg i.p.
[8] = WT control mice, 1-month old, 5 mg/kg i.p. daily from 14th postnatal day
[9] = WT mice, 3 months, chronic treatment 5 mg/kg i.p.

human forms of TRPA1, sequence (O75762 whole entry): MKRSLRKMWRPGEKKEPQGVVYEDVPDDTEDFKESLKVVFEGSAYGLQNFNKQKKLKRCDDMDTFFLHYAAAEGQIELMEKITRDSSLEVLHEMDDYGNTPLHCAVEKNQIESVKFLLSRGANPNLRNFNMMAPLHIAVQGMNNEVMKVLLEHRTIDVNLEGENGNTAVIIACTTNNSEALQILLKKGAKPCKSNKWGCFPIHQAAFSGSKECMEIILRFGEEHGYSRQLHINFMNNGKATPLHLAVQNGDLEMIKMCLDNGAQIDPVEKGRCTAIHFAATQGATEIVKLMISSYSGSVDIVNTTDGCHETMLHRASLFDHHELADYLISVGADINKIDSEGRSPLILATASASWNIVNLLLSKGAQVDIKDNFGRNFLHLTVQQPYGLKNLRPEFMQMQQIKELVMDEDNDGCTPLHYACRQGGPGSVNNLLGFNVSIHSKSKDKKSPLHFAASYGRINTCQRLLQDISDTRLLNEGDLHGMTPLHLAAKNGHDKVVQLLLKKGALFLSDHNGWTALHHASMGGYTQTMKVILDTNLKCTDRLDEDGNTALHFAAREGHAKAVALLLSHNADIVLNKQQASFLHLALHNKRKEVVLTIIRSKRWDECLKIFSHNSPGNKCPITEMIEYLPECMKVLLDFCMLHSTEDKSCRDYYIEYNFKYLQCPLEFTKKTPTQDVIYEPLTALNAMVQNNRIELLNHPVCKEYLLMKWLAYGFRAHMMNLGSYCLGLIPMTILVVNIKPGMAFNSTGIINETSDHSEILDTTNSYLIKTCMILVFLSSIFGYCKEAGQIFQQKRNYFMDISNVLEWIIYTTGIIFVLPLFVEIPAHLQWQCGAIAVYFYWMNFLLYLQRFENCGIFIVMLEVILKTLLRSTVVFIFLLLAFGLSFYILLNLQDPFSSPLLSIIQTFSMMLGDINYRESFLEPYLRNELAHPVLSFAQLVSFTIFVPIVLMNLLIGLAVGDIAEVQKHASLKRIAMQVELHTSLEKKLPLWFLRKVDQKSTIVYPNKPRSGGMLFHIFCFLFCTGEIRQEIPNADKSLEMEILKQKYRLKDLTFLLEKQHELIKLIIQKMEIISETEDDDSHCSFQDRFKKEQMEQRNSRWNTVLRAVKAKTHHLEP

## CC(C)c1ccc(NC(=O)Cn2cnc3c2c(=O)n(C)c(=O)n3C)cc1 [HC030031, 2-(1,3-Dimethyl-2,6-dioxo-1,2,3,6-tetrahydro-7H-purin-7-yl)-N-(4-isopropylphenyl)acetamide]
[1]
  astrocyte calcium hyperactivity: fully restored; also recorded: inhibited
[2]; [6]
  calcium event frequency: 0.48±0.02 calcium event/minute
  proportion of active microdomains: 56.1±3.9%
[2]; [7]
  frequency of calcium events within microdomains: 0.50±0.06 event/minute
  proportion of active microdomains: 49.4±6.4%
[2]; [8]
  frequency of calcium events within the microdomains: 0.51±0.02 calcium event/min
  proportion of active microdomains: 53.0±2.7%
[2]; [9]
  frequency of calcium events within microdomains: 0.62±0.04 calcium event/minute
  proportion of active microdomains: 60.2±3.8%
[3]
  dendritic spine density: 1.32±0.08 spine/μm
  mushroom-shaped spines: 64.0±1.7%
  thin spines: 26.7±2.0%
WT control animals
  effect at the functional level and at the structural level: no effect
Human forms of TRPA1
  IC50: ~6.2 µM
Rodent forms of TRPA1
  IC50: 7.6 µM
[4]
  analgesic effect: significant analgesic effect
[5]
  trigeminal neuropathy-like pain behaviors: abolished
